1 compound from publication PMC2765805 (Journal of medicinal chemistry, 2009) can be followed below.

Read-outs that look alike come from different tables or passages of the source.

Experiment [1] deals with T1, human A3 adenosine receptor (Homo sapiens, UniProt P0DMS8).
T1 sequence (P0DMS8 1-318): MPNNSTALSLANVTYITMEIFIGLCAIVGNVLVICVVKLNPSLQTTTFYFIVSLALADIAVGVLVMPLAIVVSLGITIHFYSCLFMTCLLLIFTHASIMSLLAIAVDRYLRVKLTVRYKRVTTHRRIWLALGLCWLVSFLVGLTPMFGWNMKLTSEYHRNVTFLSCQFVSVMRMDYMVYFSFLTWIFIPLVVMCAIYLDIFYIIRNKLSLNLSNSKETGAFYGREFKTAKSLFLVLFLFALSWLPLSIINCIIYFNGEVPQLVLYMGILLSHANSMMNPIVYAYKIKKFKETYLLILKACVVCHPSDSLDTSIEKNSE
Kind of experiment: biochemical. The arrangement: species or system CHO. The conditions noted are these: read-out: % inhibition.

Experiment [2] addresses T1, human A3 adenosine receptor. Kind of experiment: biochemical. The arrangement: species or system CHO. The conditions noted are these: read-out: % inhibition. The source holds these as a separate data set.

Broadly, the inhibition is the percentage by which the read-out fell short of the control. `Clc1ccc(Nc2nc3ccccc3c3[nH]c(C4CCCCC4)nc23)cc1Cl` [compound 3]: the inhibition at 10 µM in experiment [1] and in experiment [2] was 40.5 ± 13.4% each time.
